# Assay results reported in PubChem BioAssay (NCI).
#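 All cell lines were grown in 96-well plates and treated with compound for 48 hours. GI50: concentration for 50% inhibition of growth. Definition used: TGI = concentration required for complete inhibition of growth.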
# Columns and labels:
# Assay in all cases: inhibition of tumour cell growth, NCI panel, 48 h
# KM12 colon = tested on: KM12 colon
# SF-268 CNS = tested on: SF-268 CNS
# CCRF-CEM leukemia = tested on: CCRF-CEM leukemia
# SK-MEL-5 melanoma = tested on: SK-MEL-5 melanoma
# SNB-19 CNS = tested on: SNB-19 CNS
# SN12C renal = tested on: SN12C renal
# HOP-92 NSCLC = tested on: HOP-92 NSCLC
# CAKI-1 renal = tested on: CAKI-1 renal
# EKVX NSCLC = tested on: EKVX NSCLC
# MOLT-4 leukemia = tested on: MOLT-4 leukemia
SMILES,TGI (KM12 colon) [µM],TGI (SF-268 CNS) [µM],TGI (CCRF-CEM leukemia) [µM],TGI (SK-MEL-5 melanoma) [µM],TGI (SNB-19 CNS) [µM],TGI (SN12C renal) [µM],TGI (HOP-92 NSCLC) [µM],TGI (CAKI-1 renal) [µM],TGI (EKVX NSCLC) [µM],GI50 (SF-268 CNS) [µM],GI50 (CCRF-CEM leukemia) [µM],GI50 (SNB-19 CNS) [µM],GI50 (SN12C renal) [µM],GI50 (HOP-92 NSCLC) [µM],GI50 (MOLT-4 leukemia) [µM],TGI (MOLT-4 leukemia) [µM],GI50 (KM12 colon) [µM],GI50 (SK-MEL-5 melanoma) [µM],GI50 (CAKI-1 renal) [µM],GI50 (EKVX NSCLC) [µM]
COC(=O)C(=O)C(C(=O)C(=O)Nc1nc(=S)[nH][nH]1)c1nc2ccc([N+](=O)[O-])cc2[nH]c1=O (stereo unspecified),> 100,> 100,> 100,> 100,> 100,> 100,> 100,> 100,> 100,,,,,,,,,,,
COc1ccc2c(c1)O/C(=C\c1ccc([N+](=O)[O-])s1)C2=O,,> 19.8,> 100,,> 100,> 100,5.37,,,1.8,0.478,> 22,2.28,1.57,2.26,> 100,,,,
O=S1(=O)C=C(c2ccccc2)C(c2ccccc2)=C1,3.2,3.38,7.6,2.9,4.63,3.92,3.19,2.63,6.21,1.49,3,1.98,1.79,1.65,,,1.63,1.57,1.16,2.08
N#CCCn1c(CCC(=O)Nc2ccc(Cl)cc2Cl)n[nH]c1=S,> 100,> 100,> 100,> 100,> 100,> 100,> 100,> 100,,,,,,,,> 100,,,,
Cc1ccc(SSCCCCS(=O)O)cc1,52.3,46.9,62.5,25.6,> 100,40.4,,40.9,55.6,,,,,,,> 100,,,,
N#CC1C(=O)NC(=O)C(C#N)C1c1ccc(Cl)c(Cl)c1 (stereo unspecified),> 100,> 100,31.9,48.3,> 100,,> 100,71.6,> 100,,,,,,,62,,,,
O=C(Nc1ccc(N2CCNCC2)cn1)c1[nH]ncc1Nc1ncnc2sc3c(c12)CCC3,6.12,,,,,4.59,> 100,3.26,5.77,,,,2,4.69,2.54,19.8,2.38,,1.4,1.99
CCOc1ccccc1NC(=O)C(=O)c1c(O)c2ccc(O)cc2oc1=O,> 100,> 100,> 100,> 100,> 100,> 100,,> 100,> 100,,,,,,,> 100,,,,
NC(N)=N/N=C/c1ccc(Br)cc1,15.5,38.2,> 100,9.28,24.2,20.2,24,15.2,,12.4,12.6,5.74,6.55,5.78,3.98,> 100,3.42,2.36,3.02,
CCCCCC/C(CC(=O)CCC(=O)NCCc1ccccc1)=N\NC(=O)c1ccc2ccccc2c1O,> 100,> 100,47.4,69.5,> 100,> 100,> 100,,> 100,,,,,,,56.5,,,,
COc1cc2c3c(n(CCCN4CCN(CCO)CC4)c(=O)c2cc1OC)-c1cc2c(cc1C3=O)OCO2,22.7,> 100,1.8,26,> 65.7,> 100,> 100,42.2,,5.23,0.203,14.3,> 100,> 21.2,0.0899,6.24,9.33,13,6.53,
C#Cc1ccccc1N1C(=O)C=CC1=O,,> 100,> 100,> 100,> 100,> 100,,> 100,> 100,,,,,,,> 100,,,,
ClCCCN1CCCCC1CCl (stereo unspecified),> 100,> 100,> 100,> 100,> 100,> 100,> 100,> 100,,,,,,,,> 100,,,,
N#CC1([N+](=O)[O-])C=C1c1ccccc1 (stereo unspecified),> 100,> 100,72.2,> 100,> 100,> 100,,> 100,> 100,,,,,,,> 100,,,,
COc1cc(OC)c2c(c1Cl)O[C@]1(C2=O)C(OCc2ccccc2)=CC(=O)C[C@H]1C,> 100,53.8,12.2,11.8,98.8,14,,60.6,,1.82,0.532,5.68,0.833,,0.826,8.79,0.596,1.15,0.656,
OCC(O)C(OC1OC(CO)C(O)C(O)C1O)c1nn(-c2ccc(Cl)cc2)c2nc3cc(Cl)ccc3nc12 (stereo unspecified),> 100,> 100,> 100,,> 100,> 100,,,> 100,,,,,,,> 100,,,,
CCOC(=O)C1C(=O)c2cccc(OC)c2C2COC(=O)N12 (stereo unspecified),> 100,> 100,> 100,> 100,> 100,> 100,> 100,,> 100,,,,,,,> 100,,,,
C[C@H](CCCOS(C)(=O)=O)[C@H]1CC[C@H]2[C@@H]3CC[C@@H]4C[C@H](OS(C)(=O)=O)CC[C@]4(C)[C@H]3CC[C@]12C,> 2500,,> 2500,> 2500,> 2500,,,,> 2500,590,> 2500,929,799,,,,1230,1110,954,865
Nc1cc(N)c2nc(-c3ccccc3)c(Oc3ccc(Cl)c(Cl)c3)nc2c1,39.8,52.5,> 100,28.7,52.5,31.4,,35.9,8.35,17.1,2.98,20.9,14.5,,6.28,> 100,6.38,9.77,14.5,2.16
